In patent US4129721A, “A-40104 antibiotics and process for production thereof” (priority 1977, dated 1978):
In brackets after ≈: the same amount, converted by molar mass.

Key:
Clostridium septicum = test: standard agar-dilution test, anaerobic bacteria; format: cell-based; conditions: 2 h
Text: Table VIII summarizes the activity of A-40104 factor A, as determined by the standard agar-dilution test.
*MIC determined by the agar-dilution method. Endpoints were read after 2

Peptococcus prevoti = test: standard agar-dilution test, anaerobic bacteria; format: cell-based; conditions: read after 2 hours incubation
Streptococcus faecalis = test: standard agar-dilution test; format: cell-based; conditions: Enterococcus faecalis
Text: (§1) A-40104 factor A is an especially useful antibacterial agent. The minimal inhibitory concentrations (MIC's) at which A-40104 factor A inhibits selected bacteria, as determined by standard agar-dilution tests, are summarized in Table III.

[1] = test system: Staphylococcus aureus 3074; test: standard agar-dilution test; format: cell-based
Text: as §1

[2] = test system: Bordetella bronchiseptica; test: standard agar-dilution test; format: cell-based
Text: as §1

[3] = test system: Staphylococcus aureus 3055; test: standard agar-dilution test; format: cell-based
Text: as §1

[4] = test system: Hemophilus influenzae 260; test: gradient-plate agar-dilution method; format: cell-based; conditions: Haemophilus influenzae
Mycoplasma hyorhinis = test: in vitro broth-dilution studies, mycoplasma; format: cell-based
Text: (§2) The minimal inhibitory concentrations (MIC's) of A-40104 factor A; 19,20-dihydro-A-40104 factor A; and the tetraacetyl derivative of A-40104A against various mycoplasma species, as determined by in vitro broth-dilution studies, are summarized in Table IX.

Mycoplasma gallisepticum = test: in vitro broth-dilution studies, mycoplasma; format: cell-based
Text: as §2

Mycoplasma hyopneumoniae = test: in vitro broth-dilution studies, mycoplasma; format: cell-based
Text: as §2

Mycoplasma synoviae = test: in vitro broth-dilution studies, mycoplasma; format: cell-based
Text: as §2

[5] = test system: Streptococcus pyogenes C203; test: experimental bacterial infection in mice; format: in vivo; conditions: sc, two doses, challenge 195 × LD50 (ip), read-out: ED50 × 2
[6] = test system: Hemophilus influenzae Dick.; test: gradient-plate agar-dilution method; format: cell-based; conditions: Haemophilus influenzae
powdery mildew = powdery mildew control on bean and barley plants; format: in vivo
Text: The A-40104 antibiotics are also active against plant pathogens. […] The systemic activity of these antibiotics is especially advantageous in the control of plant pathogens or Spiroplasmas.

Bacteroides corrodens = test: standard agar-dilution test, anaerobic bacteria; format: cell-based; conditions: Eikenella corrodens, 2 h
[7] = test system: Bacteroides fragilis 1936B; test: standard agar-dilution test, anaerobic bacteria; format: cell-based; conditions: 2 h
[8] = test system: Bacteroides Melaninogenicus 2736; test: standard agar-dilution test, anaerobic bacteria; format: cell-based; conditions: 2 h

C=CC1(C)CC(OC(=O)CO[C@@H]2OC[C@@H](O)[C@H](O)[C@H]2O)C2(C)C(C)CCC3(CCC(=O)C32)C(C)C1O (stereo partly drawn) [A-40104 factor A, β,D-xylopyranosyl acetal derivative of pleuromutilin]
MIC (Clostridium septicum): 8 µg/mL (≈ 15.7 µM)
solubility in alcohols (solubility; alcohols such as methanol and ethanol): soluble in alcohols such as methanol and ethanol
solubility in chloroform (solubility; chloroform): partially soluble in chloroform
solubility in water (solubility; water): insoluble in water
MIC (Peptococcus prevoti): ≤ 0.5 µg/mL
MIC (Streptococcus faecalis): < 0.5 µg/mL
MIC [1]: < 0.5 µg/mL
MIC [2]: < 0.5 µg/mL
MIC [3]: < 0.5 µg/mL
MIC [4]: 0.7 µg/mL (≈ 1.37 µM)
minimal inhibitory concentration (MIC) (Mycoplasma hyorhinis): 1.56
minimal inhibitory concentration (MIC) (Mycoplasma gallisepticum): ≤ 0.78
minimal inhibitory concentration (MIC) (Mycoplasma hyopneumoniae): 0.195
minimal inhibitory concentration (MIC) (Mycoplasma synoviae): ≤ 0.78
ED50 [5]: 3.6 mg/kg
MIC [6]: 2 µg/mL (≈ 3.92 µM)
control of powdery mildew (powdery mildew; bean and barley plants, soil drench, 100 ppm): control of powdery mildew is obtained
activity against powdery mildew (powdery mildew; foliar spray or soil drench): active against powdery mildew
MIC (Bacteroides corrodens): 8 µg/mL (≈ 15.7 µM)
MIC [7]: 8 µg/mL (≈ 15.7 µM)
MIC [8]: 4 µg/mL (≈ 7.83 µM)
